Reference: patent US20030118990A1, “Novel estrogen-regulated G protein gamma subunit: compositions and methods of use” (Schering Aktiengesellschaft, priority 2000, published 2003)

Test system: mGγ12 mRNA
Test: Northern blot analysis of mGγ12 mRNA in liver of estrogen-treated mice
Type: in vivo, mouse
Settings: liver RNA; normal male mice treated with estrogen vs ERKO male mice treated with estrogen and un-treated male mice; effect via estrogen receptor alpha, not beta
Method: Expressed sequence tags (EST) that represent messenger RNA (mRNA) molecules that are more abundant in the liver of normal male mice treated with estrogen than in the liver of estrogen receptor alpha knockout (ERKO) male mice also treated with estrogen were obtained by subtraction cloning. The DNA sequence of complementary DNA (cDNA) clones representing the full-length mRNA molecules corresponding to one of the above mentioned EST's was obtained.
Northern blot analysis was conducted with RNA prepared from the livers of normal male mice treated with estrogen, ERKO male mice treated with estrogen, and un-treated male mice using a hybridization probe derived from the mGγ12 cDNA.

estrogen
transcription of the mGγ12 gene in the liver: activated
